By MIC50 is commonly meant the lowest concentration that inhibits either 50% of growth or 50% of the strains tested, depending on the study. A higher MIC50 goes with weaker potency. As usually defined, the MIC90 is an inhibitory concentration at the 90% level, which refers to growth in some studies and to a panel of isolates in others. The low end stands for greater potency, the high end for weaker potency.

≈ marks a conversion by molar mass, not a printed value. Numbered stars: 1 amine (or outer) side, 2 acyl side, 3 side chain; on linkers, the order of the positions; unused ones are H or OH. Bridge positions count the residues as written; N and C are the ends. Square brackets hold non-standard residues; d marks the D form. Peptide text beside a SMILES is read from it. * marks the point of attachment. hTyr(3S-OH,4S-OH,3'-OSO3H) = N[C@H](C(=O)O)[C@H](O)[C@@H](O)c1ccc(O)c(OS(=O)(=O)O)c1; pTerphenylCO(4''-OnC5H11) = CCCCCOc1ccc(-c2ccc(-c3ccc(C(=O)*)cc3)cc2)cc1; Orn(4R-OH,5R-OH) = O=C([C@H](C[C@@H](O)[C@@H](O)N[*:3])N[*:1])[*:2]; hTyr(3S-OH,4S-OH) = N[C@H](C(=O)O)[C@H](O)[C@@H](O)c1ccc(O)cc1; Pro(3S-OH,4S-Me) = C[C@H]1CN[C@H](C(=O)O)[C@H]1O; X1 = CCCCCOc1ccc(-c2cc(-c3ccc(C(=O)*)cc3)no2)cc1; Gln(3R-OH) = NC(=O)C[C@@H](O)[C@H](N)C(=O)O; Hyp = O=C(O)[C@@H]1C[C@@H](O)CN1

Experiment [1] concerns Aspergillus terreus. Description: Antimicrobial activity against Aspergillus terreus environmental isolate after 48 hrs by EUCAST test. The format is functional.
The test system of experiment [2] is Aspergillus terreus. In words: Antimicrobial activity against Aspergillus terreus clinical isolate after 48 hrs by EUCAST test. The format is functional.

Consider `C[C@@H]1[C@H](O)[C@@H](C)/C=C/C=C/C=C/C=C/C=C/C=C/C=C/[C@H](O[C@@H]2O[C@H](C)[C@@H](O)[C@H](N)[C@@H]2O)C[C@@H]2O[C@](O)(C[C@@H](O)C[C@@H](O)[C@H](O)CC[C@@H](O)C[C@@H](O)CC(=O)O[C@H]1C)C[C@H](O)[C@H]2C(=O)O` [AMPHOTERICIN B], for which the MIC50 against Aspergillus terreus [1] and in the experiment on Aspergillus terreus [2] was 2 µg/mL (≈ 2.16 µM) each time. Besides, the MIC90 with Aspergillus terreus [1] and against Aspergillus terreus [2] was 2 µg/mL (≈ 2.16 µM) in each case.
Consider `CCCCCOc1ccc(-c2ccc(-c3ccc(C(=O)N[C@H]4C[C@@H](O)[C@@H](O)NC(=O)[C@@H]5[C@@H](O)[C@@H](C)CN5C(=O)[C@H]([C@@H](C)O)NC(=O)[C@H]([C@H](O)[C@@H](O)c5ccc(O)cc5)NC(=O)[C@@H]5C[C@@H](O)CN5C(=O)[C@H]([C@@H](C)O)NC4=O)cc3)cc2)cc1` [ANIDULAFUNGIN] ({pTerphenylCO(4''-OnC5H11)}-[Orn(4R-OH,5R-OH)]T[Hyp][hTyr(3S-OH,4S-OH)]T[Pro(3S-OH,4S-Me)]; lactam 1-C), for which, in the experiment with Aspergillus terreus [1], the MIC50 turned out to be 0.015 µg/mL (≈ 0.0132 µM) and the MIC90 was 0.03 µg/mL (≈ 0.0263 µM). Moreover, in the experiment with Aspergillus terreus [2], the MIC50 is 0.015 µg/mL (≈ 0.0132 µM) and the MIC90 was 0.03 µg/mL (≈ 0.0263 µM).
In the experiment with Aspergillus terreus [1], `CC[C@H](C)C[C@H](C)CCCCCCCCC(=O)N[C@H]1C[C@@H](O)[C@@H](NCCN)NC(=O)[C@@H]2[C@@H](O)CCN2C(=O)[C@H]([C@H](O)CCN)NC(=O)[C@H]([C@H](O)[C@@H](O)c2ccc(O)cc2)NC(=O)[C@@H]2C[C@@H](O)CN2C(=O)[C@H]([C@@H](C)O)NC1=O` [CASPOFUNGIN] registered an MIC50 of 1 µg/mL (≈ 0.915 µM) and an MIC90 of 2 µg/mL (≈ 1.83 µM). In the experiment with Aspergillus terreus [2], this compound had an MIC50 of 1 µg/mL (≈ 0.915 µM) and an MIC90 of 2 µg/mL (≈ 1.83 µM).
In the experiment with Aspergillus terreus [1], `CCC(C)n1ncn(-c2ccc(N3CCN(c4ccc(OCC5COC(Cn6cncn6)(c6ccc(Cl)cc6Cl)O5)cc4)CC3)cc2)c1=O` (stereo unspecified) [ITRACONAZOLE] displayed an MIC50 of 0.125 µg/mL (≈ 0.177 µM) and an MIC90 of 0.5 µg/mL (≈ 0.709 µM). Moreover, in the experiment on Aspergillus terreus [2], the MIC50 was found to be 0.125 µg/mL (≈ 0.177 µM) and the MIC90 turned out to be 0.5 µg/mL (≈ 0.709 µM).
Turning to `CCCCCOc1ccc(-c2cc(-c3ccc(C(=O)N[C@H]4C[C@@H](O)[C@@H](O)NC(=O)[C@@H]5[C@@H](O)[C@@H](C)CN5C(=O)[C@H]([C@H](O)CC(N)=O)NC(=O)[C@H]([C@H](O)[C@@H](O)c5ccc(O)c(OS(=O)(=O)O)c5)NC(=O)[C@@H]5C[C@@H](O)CN5C(=O)[C@H]([C@@H](C)O)NC4=O)cc3)no2)cc1` [MICAFUNGIN] (X1-[Orn(4R-OH,5R-OH)]T[Hyp][hTyr(3S-OH,4S-OH,3'-OSO3H)][Gln(3R-OH)][Pro(3S-OH,4S-Me)]; lactam 1-C), in the experiment on Aspergillus terreus [1], the MIC50 was 0.015 µg/mL (≈ 0.0118 µM) and the MIC90 was found to be 0.03 µg/mL (≈ 0.0236 µM). In the experiment on Aspergillus terreus [2], the MIC50 is 0.015 µg/mL (≈ 0.0118 µM) and the MIC90 amounted to 0.03 µg/mL (≈ 0.0236 µM).
In the experiment with Aspergillus terreus [1], `CC[C@@H]([C@H](C)O)n1ncn(-c2ccc(N3CCN(c4ccc(OC[C@@H]5CO[C@@](Cn6cncn6)(c6ccc(F)cc6F)C5)cc4)CC3)cc2)c1=O` [POSACONAZOLE] showed an MIC50 of 0.12 µg/mL (≈ 0.171 µM) and an MIC90 of 0.12 µg/mL (≈ 0.171 µM). Moreover, in the experiment on Aspergillus terreus [2], the MIC50 worked out at 0.12 µg/mL (≈ 0.171 µM) and the MIC90 was 0.12 µg/mL (≈ 0.171 µM).
For the compound `C[C@@H](c1nc(-c2ccc(C#N)cc2)cs1)[C@](O)(Cn1cncn1)c1ccc(F)cc1F` [RAVUCONAZOLE], the MIC50 in the experiment on Aspergillus terreus [1] and in the experiment with Aspergillus terreus [2] was 1 µg/mL (≈ 2.29 µM) each time. The MIC90 against Aspergillus terreus [1] and against Aspergillus terreus [2] was 2 µg/mL (≈ 4.57 µM) in each case.
As to `CN(C/C=C/C#CC(C)(C)C)Cc1cccc2ccccc12` [TERBINAFINE], the MIC50 against Aspergillus terreus [1] and in the experiment on Aspergillus terreus [2] was 0.25 µg/mL (≈ 0.858 µM) each time. The MIC90 in the experiment on Aspergillus terreus [1] and with Aspergillus terreus [2] was 0.5 µg/mL (≈ 1.72 µM) in each case.
For the compound `C[C@@H](c1ncncc1F)[C@](O)(Cn1cncn1)c1ccc(F)cc1F` [VORICONAZOLE], in the experiment on Aspergillus terreus [1], the MIC50 worked out at 1 µg/mL (≈ 2.86 µM) and the MIC90 worked out at 2 µg/mL (≈ 5.73 µM). Besides, in the experiment with Aspergillus terreus [2], the MIC50 was 1 µg/mL (≈ 2.86 µM) and the MIC90 was 2 µg/mL (≈ 5.73 µM).

For the origin of these results see ChEMBL document CHEMBL1629631, “In vitro activities of various antifungal drugs against Aspergillus terreus: Global assessment using the methodology of the European committee on antimicrobial susceptibility testing” (2009).
